Patent US11685744B2, “CDK inhibitors and their use as pharmaceuticals” (Prelude Therapeutics, Incorporated, priority 2020, dated 2023)

Key:
[1] = target: CDK4/Cyclin D1 (Homo sapiens (Human), UniProt P11802); assay: CDK4/CyclinD1 enzymatic activity assay (TR-FRET); format: biochemical; details: ATP 2 mM, read-out: CDK4_D1 IC50
Procedure, shortened: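 Insect-cell CDK4/Cyclin D1 (1 nM) with ULight-4E-BP1 (100 nM) and 2 mM ATP in HEPES pH 7.4 buffer, preincubated 20 min with compound (9-dose, 3-fold dilutions); 10 mM MgCl2 started the reaction, run 60 min at 37 °C. EDTA/Eu-anti-phospho-4E-BP1 TR-FRET detection; IC50 from 4-parameter Hill fit.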

[2] = target: CDK6/Cyclin D1 (Homo sapiens (Human), UniProt Q00534); assay: CDK6/CyclinD1 enzymatic activity assay (TR-FRET); format: biochemical; details: ATP 250 μM, read-out: CDK6_D1 IC50
Procedure, shortened: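 Insect-cell-expressed CDK6/Cyclin D1 (1 nM) phosphorylated ULight-4E-BP1 (100 nM) with 250 μM ATP in HEPES pH 7.4 buffer. After 20 min compound preincubation, reactions were started with 10 mM MgCl2 and run 60 min at 37 °C. EDTA-quenched samples were read by TR-FRET with Eu-anti-P-4E-BP1; IC50 from 9-dose 4-parameter fits.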

[3] = test system: MCF7 adenocarcinoma cell line; assay: Cell proliferation studies in MCF7 cells (ATP-Lite, 10 days); format: cell-based; details: Homo sapiens, 240 h, read-out: PROLIFERATION_CTG_MCF7 IC50
Procedure, shortened: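 Cells were seeded at 100 or 200 per well in DMEM with 10% FBS and dosed in quadruplicate over a 9-point 3-fold dilution. Incubation lasted 10 days at 37 °C, with media exchange and re-dosing on day 5. Viability was read by ATP-Lite luminescence and normalised to background and DMSO, giving IC50.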

[4] = Brain-to-plasma ratio (Kp) determination in Sprague-Dawley rats; details: male, rat, po, 10 mg/kg
Protocol: The brain-to-plasma ratio (Kp) was determined in male Sprague-Dawley rats (7-9 weeks old) four hours after a single oral dose. Rats were acclimated and given free access to standard rodent chow and water throughout the entire study. Test articles were formulated as a solution at 0.3, 0.4, 0.5, or 1.0 mg/mL in a vehicle comprised of 10:15:75 (v:v:v) dimethylacetamide (DMA):Solutol HS15:water and delivered orally at a rate of 10 mL/kg to three rats to achieve final doses of 3, 4, 5, or 10 mg/kg, respectively. At 4 hours post-dose, blood samples were collected via jugular vein cannula into tubes containing K2EDTA as the anticoagulant and stored on ice. Blood samples were then centrifuged at 4° C. at 6000 rpm for 5 minutes, and the resulting plasma was placed into tubes and stored frozen at −80° C. until analysis. Whole brain samples were also collected at 4 hours post-dose. The weight of each brain was measured and recorded, and samples were immediately stored on dry ice. Brain samples were then transferred to storage at −80° C. until analysis.
Prior to analysis, brain samples were combined with water (4 mL/1 gram of brain) and homogenized. Prior to injection, plasma and brain homogenate samples and standards were prepared for analysis by precipitation with acetonitrile or 1:1 (v:v) methanol:acetonitrile. Samples were then thoroughly mixed, centrifuged at 4000 rpm for 15 minutes, and the resulting supernatant was transferred for analysis. Test article concentrations in plasma and brain homogenate were then determined by LC-MS/MS and quantified against calibration standards prepared to known concentrations in matched blank (analyte-free) biological matrix. The Kp was then determined by dividing the dilution-corrected brain concentration by the plasma concentration from each rat. A brain density of 1 gram/mL was assumed for all calculations.

[5] = brain (homogenate) versus plasma

Chain of CDK4/Cyclin D1 (P11802 whole entry): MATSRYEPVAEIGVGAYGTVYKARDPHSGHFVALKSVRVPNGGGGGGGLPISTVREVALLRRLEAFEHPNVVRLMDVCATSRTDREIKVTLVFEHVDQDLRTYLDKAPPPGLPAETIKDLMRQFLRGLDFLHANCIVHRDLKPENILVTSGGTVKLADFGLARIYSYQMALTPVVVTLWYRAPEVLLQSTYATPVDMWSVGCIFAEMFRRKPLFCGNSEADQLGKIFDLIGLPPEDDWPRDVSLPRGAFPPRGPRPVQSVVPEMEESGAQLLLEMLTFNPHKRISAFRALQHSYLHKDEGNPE
Chain of CDK4/Cyclin D1 (P24385 whole entry partner): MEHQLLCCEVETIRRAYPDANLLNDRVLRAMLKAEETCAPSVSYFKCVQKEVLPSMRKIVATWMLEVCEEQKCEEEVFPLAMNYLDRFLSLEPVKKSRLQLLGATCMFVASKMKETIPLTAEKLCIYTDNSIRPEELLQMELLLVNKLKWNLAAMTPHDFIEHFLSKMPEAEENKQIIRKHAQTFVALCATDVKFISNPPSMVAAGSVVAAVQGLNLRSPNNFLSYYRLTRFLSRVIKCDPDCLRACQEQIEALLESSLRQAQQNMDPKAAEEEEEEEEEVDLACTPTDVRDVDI
Chain of CDK6/Cyclin D1 (Q00534 whole entry): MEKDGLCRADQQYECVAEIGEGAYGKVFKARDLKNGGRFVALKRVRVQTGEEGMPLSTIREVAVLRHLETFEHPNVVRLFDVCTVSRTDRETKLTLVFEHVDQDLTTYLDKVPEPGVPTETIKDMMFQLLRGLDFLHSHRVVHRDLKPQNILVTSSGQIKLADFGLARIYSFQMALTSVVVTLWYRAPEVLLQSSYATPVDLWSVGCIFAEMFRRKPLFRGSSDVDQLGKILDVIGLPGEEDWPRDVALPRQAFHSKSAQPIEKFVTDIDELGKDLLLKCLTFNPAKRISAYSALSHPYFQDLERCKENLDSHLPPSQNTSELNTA
Chain of CDK6/Cyclin D1 (P24385 whole entry partner): as the sequence (P24385 whole entry partner) above

Row | SMILES | IC50 [1] | IC50 [2] | IC50 [3] | Kp at 4 h [4, 5] | Kp at 4 h ([4]; brain / plasma)
1 | Cc1c(-c2nc(Nc3ccc(N4C[C@H]5CN(C)C[C@H]5C4)cn3)ncc2F)sc2c(C(C)C)cn(C)c(=O)c12 [Example 78, 2-(5-Fluoro-2-((5-((3aR,6aS)-5-methylhexahydropyrrolo[3,4-c]pyrrol-2(1H)-yl)pyridin-2-yl)amino)pyrimidin-4-yl)-7-isopropyl-3,5-dimethylthieno[3,2-c]pyridin-4(5H)-one] | ≤ 20 nM | ≤ 20 nM | 20 to 200 nM | 1 to 3 | –
2 | Cc1c(-c2nc(Nc3ccc(N4C[C@@H]5CN(C)C[C@H]5C4)cn3)ncc2F)sc2c(C(C)C)cn(C)c(=O)c12 [Example 79, 2-(5-Fluoro-2-((5-((3aS,6aS)-5-methylhexahydropyrrolo[3,4-c]pyrrol-2(1H)-yl)pyridin-2-yl)amino)pyrimidin-4-yl)-7-isopropyl-3,5-dimethylthieno[3,2-c]pyridin-4(5H)-one] | ≤ 20 nM | ≤ 20 nM | 20 to 200 nM | < 1 | –
3 | [2H]C([2H])([2H])N1CCC(c2ccc(Nc3ncc(F)c(-c4sc5c(C(C)C)cn(C)c(=O)c5c4C)n3)nc2)CC1 [Example 82, 2-(5-Fluoro-2-((5-(1-(methyl-d3)piperidin-4-yl)pyridin-2-yl)amino)pyrimidin-4-yl)-7-isopropyl-3,5-dimethylthieno[3,2-c]pyridin-4(5H)-one] | ≤ 20 nM | ≤ 20 nM | 20 to 200 nM | > 3 | –
4 | Cc1c(-c2nc(Nc3ccc(C4CCN(C5CCOC5)CC4)cn3)ncc2F)sc2c(C(C)C)cn(C)c(=O)c12 (centres unmarked) [Example 84, 2-(5-Fluoro-2-((5-(1-(tetrahydrofuran-3-yl)piperidin-4-yl)pyridin-2-yl)amino)pyrimidin-4-yl)-7-isopropyl-3,5-dimethylthieno[3,2-c]pyridin-4(5H)-one] | ≤ 20 nM | ≤ 20 nM | 20 to 200 nM | 1 to 3 | –
5 | CC(C)c1cn(C)c(=O)c2cc(-c3nc(Nc4ccc(C5CCN(C)CC5)cn4)ncc3F)sc12 [Example 86, 2-(5-Fluoro-2-((5-(1-methylpiperidin-4-yl)pyridin-2-yl)amino)pyrimidin-4-yl)-7-isopropyl-5-methylthieno[3,2-c]pyridin-4(5H)-one] | ≤ 20 nM | 20 to 200 nM | 20 to 200 nM | 1 to 3 | –
6 | CCN1CCC(c2ccc(Nc3ncc(F)c(-c4sc5c(C(C)C)cn(C)c(=O)c5c4C)n3)nc2)CC1 [Example 87, 2-(2-((5-(1-Ethylpiperidin-4-yl)pyridin-2-yl)amino)-5-fluoropyrimidin-4-yl)-7-isopropyl-3,5-dimethylthieno[3,2-c]pyridin-4(5H)-one] | ≤ 20 nM | ≤ 20 nM | 20 to 200 nM | 1 to 3 | –
7 | Cc1c(-c2nc(Nc3ccc(C4CCCN(C)C4)cn3)ncc2F)sc2c(C(C)C)cn(C)c(=O)c12 (centres unmarked) [Example 88, 2-(5-Fluoro-2-((5-(1-methylpiperidin-3-yl)pyridin-2-yl)amino)pyrimidin-4-yl)-7-isopropyl-3,5-dimethylthieno[3,2-c]pyridin-4(5H)-one] | ≤ 20 nM | 20 to 200 nM | 20 to 200 nM | 1 to 3 | –
8 | Cc1c(-c2nc(Nc3ccc(N4CCN(C(C)C)CC4)cn3)ncc2F)sc2c(C(C)C)cn(C)c(=O)c12 [Example 89, 2-(5-Fluoro-2-((5-(4-isopropylpiperazin-1-yl)pyridin-2-yl)amino)pyrimidin-4-yl)-7-isopropyl-3,5-dimethylthieno[3,2-c]pyridin-4(5H)-one] | ≤ 20 nM | ≤ 20 nM | 20 to 200 nM | > 3 | –
9 | CCN1CCN(Cc2ccc(Nc3ncc(F)c(-c4sc5c(C(C)C)cn(C)c(=O)c5c4C)n3)nc2)CC1 [Example 90, 2-(2-((5-((4-Ethylpiperazin-1-yl)methyl)pyridin-2-yl)amino)-5-fluoropyrimidin-4-yl)-7-isopropyl-3,5-dimethylthieno[3,2-c]pyridin-4(5H)-one] | ≤ 20 nM | 20 to 200 nM | 20 to 200 nM | < 1 | –
10 | Cc1c(-c2nc(Nc3ccc(N4CCC5(CC4)CN(C)C5)cn3)ncc2F)sc2c(C(C)C)cn(C)c(=O)c12 [Example 91, 2-(5-Fluoro-2-((5-(2-methyl-2,7-diazaspiro[3.5]nonan-7-yl)pyridin-2-yl)amino)pyrimidin-4-yl)-7-isopropyl-3,5-dimethylthieno[3,2-c]pyridin-4(5H)-one] | ≤ 20 nM | ≤ 20 nM | 20 to 200 nM | < 1 | –
11 | Cc1c(-c2nc(Nc3ccc(C4CCN(C)CC4)nn3)ncc2F)sc2c(C(C)C)cn(C)c(=O)c12 [Example 93, 2-(5-Fluoro-2-((6-(1-methylpiperidin-4-yl)pyridazin-3-yl)amino)pyrimidin-4-yl)-7-isopropyl-3,5-dimethylthieno[3,2-c]pyridin-4(5H)-one] | ≤ 20 nM | 20 to 200 nM | 20 to 200 nM | < 1 | –
12 | Cc1c(-c2nc(Nc3ccc(C4CCN(C(C)C)C4)cn3)ncc2F)sc2c(C(C)C)cn(C)c(=O)c12 (centres unmarked) [Example 95, 2-(5-Fluoro-2-((5-(1-isopropylpyrrolidin-3-yl)pyridin-2-yl)amino)pyrimidin-4-yl)-7-isopropyl-3,5-dimethylthieno[3,2-c]pyridin-4(5H)-one] | ≤ 20 nM | 20 to 200 nM | 20 to 200 nM | 1 to 3 | –
13 | Cc1cnc(Nc2ccc(C3CCN(C)CC3)cn2)nc1-c1cc2c(=O)n(C)cc(C(C)C)c2s1 [Example 97, 7-Isopropyl-5-methyl-2-(5-methyl-2-((5-(1-methylpiperidin-4-yl)pyridin-2-yl)amino)pyrimidin-4-yl)thieno[3,2-c]pyridin-4(5H)-one] | ≤ 20 nM | ≤ 20 nM | ≤ 20 nM | < 1 | –
14 | CC(C)c1c2sc(-c3nc(Nc4ccc(C5CCN(C)CC5)cn4)ncc3F)cc2nn1C [Example 99, 5-Fluoro-4-(3-isopropyl-2-methyl-2H-thieno[3,2-c]pyrazol-5-yl)-N-(5-(1-methylpiperidin-4-yl)pyridin-2-yl)pyrimidin-2-amine] | ≤ 20 nM | 20 to 200 nM | 20 to 200 nM | > 3 | –
15 | CCN1CCN(c2ccc(Nc3ncc(F)c(-c4sc5c(C(C)(O)C(F)(F)F)n(C)nc5c4C)n3)nc2)CC1 (centres unmarked) [Example 102, 2-(5-(2-((5-(4-Ethylpiperazin-1-yl)pyridin-2-yl)amino)-5-fluoropyrimidin-4-yl)-2,6-dimethyl-2H-thieno[3,2-c]pyrazol-3-yl)-1,1,1-trifluoropropan-2-ol] | ≤ 20 nM | ≤ 20 nM | 20 to 200 nM | 1 to 3 | –
16 | CCN1CC2(CC(c3ccc(Nc4ncc(F)c(-c5cc6nc(C)n(C(C)C)c6s5)n4)nc3)C2)C1 [Example 112, N-(5-(2-Ethyl-2-azaspiro[3.3]heptan-6-yl)pyridin-2-yl)-5-fluoro-4-(3-isopropyl-2-methyl-3H-thieno[2,3-d]imidazol-5-yl)pyrimidin-2-amine] | ≤ 20 nM | 20 to 200 nM | 20 to 200 nM | < 1 | –
17 | Cc1nc2cc(-c3nc(Nc4ccc(OC5CCN(C)C5)cn4)ncc3F)sc2n1C(C)C (centres unmarked) [Example 114, 5-Fluoro-4-(2-methyl-3-propan-2-ylthieno[2,3-d]imidazol-5-yl)-N-[5-(1-methylpyrrolidin-3-yl)oxypyridin-2-yl]pyrimidin-2-amine] | ≤ 20 nM | 20 to 200 nM | 20 to 200 nM | – | 1 to 3
